Columns and labels:
HCV NS5B = target: T1, HCV NS5B (Hepatitis C virus genotype 1b, UniProt Q9WMX2); assay: HCV NS5B RdRp enzyme assay (preincubation protocol); type: biochemical; conditions: HCV NS5B RdRp genotype 1b
T1 construct: The protein was expressed with an 18 amino acid C-terminal truncation to enhance the solubility; made in house; host or cells: E. coli BL21(DE3)
Procedure: HCV NS5B RdRp cloning, expression, and purification. The cDNA encoding the NS5B protein of HCV, genotype 1b, was cloned into the pET21a expression vector. The protein was expressed with an 18 amino acid C-terminal truncation to enhance the solubility. The E. coli competent cell line BL21(DE3) was used for expression of the protein. Cultures were grown at 37° C. for ˜4 hours until the cultures reached an optical density of 2.0 at 600 nm. The cultures were cooled to 20° C. and induced with 1 mM IPTG. Fresh ampicillin was added to a final concentration of 50 μg/ml and the cells were grown overnight at 20° C.
Cell pellets (3 L) were lysed for purification to yield 15-24 mgs of purified NS5B. The lysis buffer consisted of 20 mM Tris-HCl, pH 7.4, 500 mM NaCl, 0.5% triton X-100, 1 mM DTT, 1 mM EDTA, 20% glycerol, 0.5 mg/ml lysozyme, 10 mM MgCl2, 15 ug/ml deoxyribonuclease I, and Complete TM protease inhibitor tablets (Roche). After addition of the lysis buffer, frozen cell pellets were resuspended using a tissue homogenizer. To reduce the viscosity of the sample, aliquots of the lysate were sonicated on ice using a microtip attached to a Branson sonicator. The sonicated lysate was centrifuged at 100,000×g for 1 hr at 4° C. and filtered through a 0.2 μm filter unit (Corning).
The protein was purified using three sequential chromatography steps: Heparin sepharose CL-6B, polyU sepharose 4B, and Hitrap SP sepharose (Pharmacia). The chromatography buffers were identical to the lysis buffer but contained no lysozyme, deoxyribonuclease I, MgCl2 or protease inhibitor and the NaCl concentration of the buffer was adjusted according to the requirements for charging the protein onto the column. Each column was eluted with a NaCl gradient which varied in length from 5-50 column volumes depending on the column type. After the final chromatography step, the resulting purity of the enzyme is >90% based on SDS-PAGE analysis. The enzyme was aliquoted and stored at −80° C.
Standard HCV NS5B RdRp enzyme assay. HCV RdRp genotype 1b assays were run in a final volume of 60 μl in 96 well plates (Costar 3912 H. The assay buffer is composed of 20 mM Hepes, pH 7.5, 2.5 mM KCl, 2.5 mM MgCl2, 1 mM DTT, 1.6 U RNAse inhibitor (Promega N2515), 0.1 mg/ml BSA (Promega R3961), and 2% glycerol. All compounds were serially diluted (3-fold) in DMSO and diluted further in water such that the final concentration of DMSO in the assay was 2%. HCV RdRp genotype 1b enzyme was used at a final concentration of 28 nM. A polyA template was used at 6 nM, and a biotinylated oligo-dT12 primer was used at 180 nM final concentration. Template was obtained commercially (Amersham 27-4110). Biotinylated primer was prepared by Sigma Genosys. 3H-UTP was used at 0.6 μCi (0.29 μM total UTP). Reactions were initiated by the addition of enzyme, incubated at 30° C. for 60 min, and stopped by adding 25 μl of 50 mM EDTA containing SPA beads (4 μg/μl, Amersham RPNQ 0007 H. Plates were read on a Packard Top Count NXT after >1 hr incubation at room temperature.
Modified HCV NS5B RdRp enzyme assay. A modified enzyme assay was performed essentially as described for the standard enzyme assay except for the following: The biotinylated oligo dT12 primer was precaptured on streptavidin-coated SPA beads by mixing primer and beads in assay buffer and incubating at room temperature for one hour. Unbound primer was removed after centrifugation. The primer-bound beads were resuspended in 20 mM Hepes buffer, pH 7.5 and used in the assay at final concentrations of 20 nM primer and 0.67 μg/μl beads. Order of addition in the assay: enzyme (14 nM) was added to diluted compound followed by the addition of a mixture of template (0.2 nM), 3H-UTP (0.6 μCi, 0.29 μM), and primer-bound beads, to initiate the reaction; concentrations given are final. Reactions were allowed to proceed for 4 hours at 30° C.
IC50 values for compounds were determined using seven different [I]. […]

HCV replicon cells = assay: HCV replicon FRET assay; type: cell-based; conditions: Hepatitis C virus
Excerpt: FRET Assay Preparation. To perform the HCV FRET screening assay, 96-well cell culture plates were used. The FRET peptide (Anaspec, Inc.) (Taliani et al., Anal Biochem. 1996, 240, 60-67) contains a fluorescence donor, EDANS, near one end of the peptide and an acceptor, DABCYL, near the other end. The fluorescence of the peptide is quenched by […] resonance energy transfer (RET) between the donor and the acceptor, but as the NS3 protease cleaves the peptide the products are released from RET quenching and the fluorescence of the donor becomes apparent. The assay reagent was made as follows: 5× cell Luciferase cell culture lysis reagent from Promega (#E153A) diluted to 1× with dH2O, NaCl added to 150 mM final, the FRET peptide diluted to 20 μM final from a 2 mM stock.
To prepare plates, HCV replicon cells, with or without a Renilla luciferase reporter gene, were trypsinized and placed into each well of a 96-well plate with titrated test compounds added in columns 3 through 12; columns 1 and 2 contained a control compound (HCV protease inhibitor), and the bottom row contained cells without compound. The plates were then placed in a CO2 incubator at 37° C.
Assays. Subsequent to addition of the test compounds described above (FRET Assay Preparation), at various times the plate was removed and Alamar blue solution (Trek Diagnostics, #00-100) was added per well as a measure of cellular toxicity. After reading in a Cytoflour 4000 instrument (PE Biosystems), plates were rinsed with PBS and then used for FRET assay by the addition of 30 ul of the FRET peptide assay reagent described above (FRET Assay Preparation) per well. The plate was then placed into the Cytoflour 4000 instrument which had been set to 340 excite/490 emission, automatic mode for 20 cycles and the plate read in a kinetic mode. Typically, the signal to noise using an endpoint analysis after the reads was at least three-fold. Alternatively, after Alamar blue reading, plates were rinsed with PBS, 50 ul of DMEM (high glucose) without phenol red was added and plates were then used for luciferase assay using the Promega Dual-Glo Luciferase Assay System.
Compound analysis was determined by quantification of the relative HCV replicon inhibition and the relative cytotoxicity values. To calculate cytoxicity values, the average Alamar Blue fluorescence signals from the control wells were set as 100% non-toxic. The individual signals in each of the compound test wells were then divided by the average control signal and multiplied by 100% to determine […]. To calculate the HCV replicon inhibition values, an average background value was obtained from the two wells containing the highest amount of HCV protease inhibitor at the end of the assay period. These numbers were similar to those obtained from naïve Huh-7 cells.
The background numbers were then subtracted from the average signal obtained from the control wells and this number was used as 100% activity. The individual signals in each of the compound test wells were then divided by the averaged control values after background subtraction and multiplied by 100% to determine percent activity. EC50 values for a protease inhibitor titration were calculated as the concentration which caused a 50% reduction in FRET or luciferase activity. The two numbers generated for the compound plate, percent cytoxicity and percent activity were used to determine compounds of interest for further analysis.

T1 sequence (Q9WMX2 2420-2992): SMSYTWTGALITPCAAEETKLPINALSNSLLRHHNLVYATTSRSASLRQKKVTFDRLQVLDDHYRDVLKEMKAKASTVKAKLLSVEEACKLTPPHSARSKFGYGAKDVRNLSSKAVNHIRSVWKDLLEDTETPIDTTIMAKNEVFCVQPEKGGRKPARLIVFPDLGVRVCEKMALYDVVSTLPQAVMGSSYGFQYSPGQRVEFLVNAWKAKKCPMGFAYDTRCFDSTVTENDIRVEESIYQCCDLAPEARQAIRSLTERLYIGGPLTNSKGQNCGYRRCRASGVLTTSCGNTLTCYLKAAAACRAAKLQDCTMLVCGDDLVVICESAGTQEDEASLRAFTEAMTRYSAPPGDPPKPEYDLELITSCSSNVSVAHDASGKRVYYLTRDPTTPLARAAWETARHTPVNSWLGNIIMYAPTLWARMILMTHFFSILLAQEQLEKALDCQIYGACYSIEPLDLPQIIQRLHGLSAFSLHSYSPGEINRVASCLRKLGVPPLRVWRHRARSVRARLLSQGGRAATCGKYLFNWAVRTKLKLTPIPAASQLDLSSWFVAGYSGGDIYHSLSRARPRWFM

SMILES | IC50 (HCV NS5B) [nM] | EC50 (HCV replicon cells) [nM]
O=C(O)c1ccc2c(C3CCCCC3)c3n(c2c1)CC(c1nnnn1CC1CCCO1)=Cc1ccccc1-3 (stereo not shown) [Example 10, 13-cyclohexyl-6-[1-[(tetrahydro-2-furanyl)methyl]-1H-tetrazol-5-yl]-7H-indolo[2,1-a][2]benzazepine-10-carboxylic acid] | 1 to 500 | > 500
O=C(O)c1ccc2c(C3CCCCC3)c3n(c2c1)CC(c1nnn(CC2CCOCC2)n1)=Cc1ccccc1-3 [Example 11, 13-cyclohexyl-6-[2-[(tetrahydro-2H-pyran-4-yl)methyl]-2H-tetrazol-5-yl]-7H-indolo[2,1a][2]benzazepine-10-carboxylic acid] | 1 to 500 | > 500
O=C(O)c1ccc2c(C3CCCCC3)c3n(c2c1)C=C(c1nnn(CC2CCOCC2)n1)Cc1ccccc1-3 [Example 12, 13-cyclohexyl-6-[2-[(tetrahydro-2H-pyran-4-yl)methyl]-2H-tetrazol-5-yl]-5H-indolo[2,1-a][2]benzazepine-10-carboxylic acid] | > 500 | > 500
O=C(O)c1ccc2c(C3CCCCC3)c3n(c2c1)CC(c1nnnn1CC1CCOCC1)=Cc1ccccc1-3 [Example 13, 13-cyclohexyl-6-[1-[(tetrahydro-2H-pyran-4-yl)methyl]-1H-tetrazol-5-yl]-7H-indolo[2,1-a][2]benzazepine-10-carboxylic acid] | 1 to 500 | > 500
O=C(O)c1ccc2c(C3CCCCC3)c3n(c2c1)C=C(c1nnnn1CC1CCOCC1)Cc1ccccc1-3 [Example 14, 13-cyclohexyl6-[1-[(tetrahydro-2H-pyran-4-yl)methyl]-1H-tetrazol-5-yl]-5H-indolo[2,1-a][2]benzazepine-10-carboxylic acid] | > 500 | > 500
CN(C)S(=O)(=O)NC(=O)c1ccc2c(C3CCCCC3)c3n(c2c1)CC(c1nnn(CC2CCOCC2)n1)=Cc1ccccc1-3 [Example 15, 13-cyclohexyl-N-[(dimethylamino)sulfonyl]-6-[2-[(tetrahydro-2H-pyran-4-yl)methyl]-2H-tetrazol-5-yl]-7H-indolo[2,1-a][2]benzazepine-10-carboxamide] | 1 to 500 | > 500
COc1ccc2c(c1)C=C(c1nnn(CC3CCOCC3)n1)Cn1c-2c(C2CCCCC2)c2ccc(C(=O)O)cc21 [Example 16, 13-cyclohexyl-3-methoxy-6-[2-[(tetrahydro-2H-pyran-4-yl)methyl]-2H-tetrazol-5-yl]-7H-indolo[2,1-a][2]benzazepine-10-carboxylic acid] | 1 to 500 | > 500
COc1ccc2c(c1)C=C(c1nnn(CC3CCOCC3)n1)Cn1c-2c(C2CCCCC2)c2ccc(C(=O)NS(=O)(=O)N(C)C)cc21 [Example 17, 13-cyclohexyl-N-[(dimethylamino)sulfonyl]-3-methoxy-6-[2-[(tetrahydro-2H-pyran-4-yl)methyl]-2H-tetrazol-5-yl]-7H-indolo[2,1-a][2]benzazepine-10-carboxamide] | 1 to 500 | 1 to 500
O=C(O)c1ccc2c(C3CCCCC3)c3n(c2c1)CC(c1n[nH]c(=O)o1)=Cc1ccccc1-3 [Example 19, 13-cyclohexyl-6-(4,5-dihydro-5-oxo-1,3,4-oxadiazol-2-yl)-7H-indolo[2,1-a][2]benzazepine-10-carboxylic acid] | 1 to 500 | > 500
O=C(O)c1ccc2c(C3CCCCC3)c3n(c2c1)CC(c1nn(CC2CCOCC2)c(=O)o1)=Cc1ccccc1-3 [Example 21, 13-cyclohexyl-6-[4,5-dihydro-5-oxo-4-[(tetrahydro-2H-pyran-4-yl)methyl]-1,3,4-oxadiazol-2-yl]-7H-indolo[2,1-a][2]benzazepine-10-carboxylic acid] | 1 to 500 | > 500
O=C(O)c1ccc2c(C3CCCCC3)c3n(c2c1)CC(c1n[nH]c(CC2CCOCC2)n1)=Cc1ccccc1-3 [Example 22, 13-cyclohexyl-6-[3-[(tetrahydro-2H-pyran-4-yl)methyl]-1H-1,2,4-triazol-5-yl]-7H-indolo[2,1-a][2]benzazepine-10-carboxylic acid] | 1 to 500 | > 500
COC(=O)c1ccc2c(C3CCCCC3)c3n(c2c1)CC(c1nc(C)no1)=Cc1ccccc1-3 [Example 23, 13-cyclohexyl-6-(3-methyl-1,2,4-oxadiazol-5-yl)-7H-indolo[2,1-a][2]benzazepine-10-carboxylic acid, methyl ester] | > 500 | > 500
Cc1noc(C2=Cc3ccccc3-c3c(C4CCCCC4)c4ccc(C(=O)O)cc4n3C2)n1 [Example 24, 13-cyclohexyl-6-(3-methyl-1,2,4-oxadiazol-5-yl)-7H-indolo[2,1-a][2]benzazepine-10-carboxylic acid] | 1 to 500 | > 500
Cc1noc(C2=Cc3ccccc3-c3c(C4CCCCC4)c4ccc(C(=O)NS(=O)(=O)N(C)C)cc4n3C2)n1 [Example 25, 13-cyclohexyl-N-[(dimethylamino)sulfonyl]-6-(3-methyl-1,2,4-oxadiazol-5-yl)-7H-indolo[2,1-a][2]benzazepine-10-carboxamide] | 1 to 500 | 1 to 500

From patent US7456165B2, “HCV NS5B inhibitors” (Bristol-Myers Squibb Company, priority 2006, dated 2008)
